Patent publication US11752122B2 (OKLAHOMA MEDICAL RESEARCH FOUNDATION, priority 2018, dated 2023)
Read-outs that look alike come from different tables or passages of the source.

Test system: LDLR mice on HFD
Settings: for WSS (wall shear stress) / fractional valve opening: LDLR mice on HFD, vs untreated control mice
Description: Mice. Hypercholesterolemic mice deficient for low-density lipoprotein receptors (Ldlr−/−), which only express ApoB-100 (Ldlr−/−Apob100/100, LDLR), were obtained from Jackson Laboratories (B6; 129SLdlrtm1HerApobtm2Sgy/J, stock no. 003000). WT C57bl/6 mice were also obtained from the Jackson Laboratory (stock no. 000664) and served as controls. TGF-β1^platelet-KO-LDLR mice (Pf4Cre+Tgfb1f/f;Ldlr−/−Apob100/100;) and TGF-β1^flox-LDLR littermate controls (Tgfb1f/f;Ldlr−/−Apob100/100) were generated by crossing LDLR mice with Pf4Cre+;Tgfb1f/f mice, as shown in FIGS. 7A-B and Supplemental Table 5. […] The inventor crossed Tie2Cre mice (stock no. 008863, Jackson Laboratories) with tdTomato lox-stop-lox mice (stock no. 007909, Jackson Laboratories) to generate Tie2Cre;tdTomato mice that express tdTomato only under Cre activity. All mice were housed in a controlled environment (23±2° C.; 12 hours light/dark cycles) and fed either a chow diet (CD) (PicoLab® Rodent Diet 20, 5053) or a customized high fat diet (HFD) (Harlan Teklad, TD.9612102. containing 21% milk fat (MF), 1.25% Cholesterol) in powdered form in a glass jar with perforated metal strainer (DYETS, Braintree Scientific Inc.). The Oklahoma Medical Research Foundation's Institutional Animal Care and Usage Committee approved all procedures.
Experimental Design. A total of 118 LDLR (58 Males, 60 Females) and 20 WT mice (10 Males, 10 Females) were used for this study. Half of the mice (6 weeks old) were switched to HFD and maintained for up to 9 months. Progression and severity (mild/moderate/severe) of AS were monitored at 0, 3, 6 and 9 months by echocardiography using non-invasive ultrasound imaging techniques. Five mice per cage (total of 25 males, 15 females) were treated with 2% N-acetylcysteine (NAC) (Acros Organics, 160280010) in drinking water. NAC was prepared in reverse osmosis water and its pH was adjusted to 7.4 with NaOH. Water was replaced with a fresh solution every week.
Echocardiography. Mice were anesthetized with Isoflurane (3-5% inhalation) in an induction chamber. Mice that appeared to be sick due to severe stenosis or that were underweight were anesthetized using a lower isoflurane level to prevent adverse or lethal effects from the anesthetic. Once visibly anesthetized, isoflurane was reduced to 0.5%-2% and the mouse was moved from the chamber to a nose-cone on a heated platform set at 40° C. to maintain body temperature (35±2° C.). Heavier mice were maintained at higher isoflurane levels as they appeared less sensitive to its anesthetic effects. All four limbs were taped to physiological electrodes and a rectal temperature probe was inserted. Electrode gel was used to enhance the physiologic readings. To ensure accuracy of all echo measurements, physiological parameters were monitored and recordings were only taken if the heart rate was 430-550 beats per minute, respiration was 20-100 breaths per minute, and body temperature was close to 37° C. (35±2° C.).
Measurement of AS parameters using a modified view of ultrasound imaging. Echocardiography is the gold standard non-invasive method to measure AS in humans. However, the mouse heart rate is 10-times faster (500 to 600 beats per minute), making the acquisition of high-resolution images of the very thin non-diseased valves challenging. […] LVOT was measured from the long-axis view and was used to calculate AV pressure and normalize the cusp separation (Lindman et al., 2016; Meyer et al., 2012). This view was obtained by tilting the lower left corner of the platform downward by about 30° and angling the transducer up such that it interfaced with the chest cavity by about 45°.

[1] = LDLR HFD + NAC (2-5 Months), total n=8
[2] = LDLR HFD + NAC (3-5 Months), total n=11
[3] = LDLR HFD + NAC (5-6 Months), total n=7

Question: With `CC(=O)N[C@@H](CS)C(=O)O` [NAC, N-acetylcysteine] as the compound, how does the “Penetrance, fractional valve opening: Mild Stenosis 0.75-0.85, number of mice” value [1] read?
Answer: The value was 1.

Question: And the “Penetrance, fractional valve opening: Mild Stenosis 0.75-0.85, percent of mice” value [1]?
Answer: Its value is “(12%)”.

Question: And the “Penetrance, fractional valve opening: Moderate Stenosis 0.6-0.75, number of mice” value [1]?
Answer: Its value is 2.

Question: What about the “Penetrance, fractional valve opening: Moderate Stenosis 0.6-0.75, percent of mice” value [1] of the same compound?
Answer: Its value is “(25%)”.

Question: What about the “Penetrance, fractional valve opening: No Stenosis >0.85, number of mice” value [1] of the same compound?
Answer: The value was 0.

Question: And the “Penetrance, fractional valve opening: No Stenosis >0.85, percent of mice” value [1]?
Answer: The value was “(0%)”.

Question: And the “Penetrance, fractional valve opening: Severe Stenosis <0.6, number of mice” value [1]?
Answer: Its value is 5.

Question: What about the “Penetrance, wall shear stress: Mild Stenosis 350-525 dyn/cm^2, number of mice” value [1] of the same compound?
Answer: The value was 0.

Question: What about the “Penetrance, wall shear stress: Mild Stenosis 350-525 dyn/cm^2, percent of mice” value [1] of the same compound?
Answer: Its value is “(0%)”.

Question: And the “Penetrance, wall shear stress: Moderate Stenosis 525-700 dyn/cm^2, number of mice” value [1]?
Answer: The value was 3.

Question: What about the “Penetrance, wall shear stress: Moderate Stenosis 525-700 dyn/cm^2, percent of mice” value [1] of the same compound?
Answer: The value was “(37%)”.

Question: What about the “Penetrance, wall shear stress: No Stenosis <350 dyn/cm^2, number of mice” value [1] of the same compound?
Answer: Its value is 0.

Question: And the “Penetrance, wall shear stress: No Stenosis <350 dyn/cm^2, percent of mice” value [1]?
Answer: Its value is “(0%)”.

Question: And the “Penetrance, wall shear stress: Severe Stenosis >700 dyn/cm^2, number of mice” value [1]?
Answer: Its value is 6.

Question: And the “Penetrance, wall shear stress: Severe Stenosis >700 dyn/cm^2, percent of mice” value [1]?
Answer: Its value is “(63%)”.

Question: And the “Penetrance, fractional valve opening: Mild Stenosis 0.75-0.85, number of mice” value [2]?
Answer: The value was 2.

Question: And the “Penetrance, fractional valve opening: Mild Stenosis 0.75-0.85, percent of mice” value [2]?
Answer: Its value is “(16%)”.

Question: What about the “Penetrance, fractional valve opening: Moderate Stenosis 0.6-0.75, number of mice” value [2] of the same compound?
Answer: The value was 7.

Question: What about the “Penetrance, fractional valve opening: Moderate Stenosis 0.6-0.75, percent of mice” value [2] of the same compound?
Answer: Its value is “(64%)”.

Question: What about the “Penetrance, fractional valve opening: No Stenosis >0.85, number of mice” value [2] of the same compound?
Answer: Its value is 0.

Question: And the “Penetrance, fractional valve opening: No Stenosis >0.85, percent of mice” value [2]?
Answer: The value was “(0%)”.

Question: And the “Penetrance, fractional valve opening: Severe Stenosis <0.6, number of mice” value [2]?
Answer: The value was 2.

Question: And the “Penetrance, fractional valve opening: Severe Stenosis <0.6, percent of mice” value [2]?
Answer: Its value is “(18%)”.

Question: And the “Penetrance, wall shear stress: Mild Stenosis 350-525 dyn/cm^2, number of mice” value [2]?
Answer: The value was 4.

Question: What about the “Penetrance, wall shear stress: Mild Stenosis 350-525 dyn/cm^2, percent of mice” value [2] of the same compound?
Answer: Its value is “(36%)”.

Question: And the “Penetrance, wall shear stress: Moderate Stenosis 525-700 dyn/cm^2, number of mice” value [2]?
Answer: Its value is 5.

Question: And the “Penetrance, wall shear stress: Moderate Stenosis 525-700 dyn/cm^2, percent of mice” value [2]?
Answer: Its value is “(46%)”.

Question: And the “Penetrance, wall shear stress: No Stenosis <350 dyn/cm^2, number of mice” value [2]?
Answer: Its value is 0.

Question: And the “Penetrance, wall shear stress: No Stenosis <350 dyn/cm^2, percent of mice” value [2]?
Answer: Its value is “(0%)”.

Question: What about the “Penetrance, wall shear stress: Severe Stenosis >700 dyn/cm^2, number of mice” value [2] of the same compound?
Answer: The value was 2.

Question: And the “Penetrance, wall shear stress: Severe Stenosis >700 dyn/cm^2, percent of mice” value [2]?
Answer: Its value is “(18%)”.

Question: And the “Penetrance, fractional valve opening: Mild Stenosis 0.75-0.85, number of mice” value [3]?
Answer: The value was 3.

Question: And the “Penetrance, fractional valve opening: Mild Stenosis 0.75-0.85, percent of mice” value [3]?
Answer: Its value is “(43%)”.

Question: What about the “Penetrance, fractional valve opening: Moderate Stenosis 0.6-0.75, number of mice” value [3] of the same compound?
Answer: The value was 4.

Question: What about the “Penetrance, fractional valve opening: Moderate Stenosis 0.6-0.75, percent of mice” value [3] of the same compound?
Answer: The value was “(57%)”.

Question: And the “Penetrance, fractional valve opening: No Stenosis >0.85, number of mice” value [3]?
Answer: The value was 0.

Question: What about the “Penetrance, fractional valve opening: No Stenosis >0.85, percent of mice” value [3] of the same compound?
Answer: The value was “(0%)”.

Question: What about the “Penetrance, fractional valve opening: Severe Stenosis <0.6, number of mice” value [3] of the same compound?
Answer: Its value is 0.

Question: And the “Penetrance, fractional valve opening: Severe Stenosis <0.6, percent of mice” value [3]?
Answer: Its value is “(0%)”.

Question: What about the “Penetrance, wall shear stress: Mild Stenosis 350-525 dyn/cm^2, number of mice” value [3] of the same compound?
Answer: Its value is 3.

Question: And the “Penetrance, wall shear stress: Mild Stenosis 350-525 dyn/cm^2, percent of mice” value [3]?
Answer: The value was “(43%)”.

Question: And the “Penetrance, wall shear stress: Moderate Stenosis 525-700 dyn/cm^2, number of mice” value [3]?
Answer: The value was 4.

Question: And the “Penetrance, wall shear stress: Moderate Stenosis 525-700 dyn/cm^2, percent of mice” value [3]?
Answer: The value was “(57%)”.

Question: What about the “Penetrance, wall shear stress: No Stenosis <350 dyn/cm^2, number of mice” value [3] of the same compound?
Answer: Its value is 0.

Question: What about the “Penetrance, wall shear stress: No Stenosis <350 dyn/cm^2, percent of mice” value [3] of the same compound?
Answer: The value was “(0%)”.

Question: And the “Penetrance, wall shear stress: Severe Stenosis >700 dyn/cm^2, number of mice” value [3]?
Answer: Its value is 0.

Question: What about the “Penetrance, wall shear stress: Severe Stenosis >700 dyn/cm^2, percent of mice” value [3] of the same compound?
Answer: Its value is “(0%)”.

Question: What about the “WSS (wall shear stress)” value (NAC months 3-5 (moderate AS)) of the same compound?
Answer: The value was “improved”.

Question: And the fractional valve opening (NAC months 3-5 (moderate AS))?
Answer: Its fractional valve opening is “improved”.

Question: And the “WSS (wall shear stress)” value (NAC months 5-6 (severe AS))?
Answer: Its value is “improved”.

Question: And the fractional valve opening (NAC months 5-6 (severe AS))?
Answer: Its fractional valve opening is “improved”.

Question: What about the “effect on AS” value (long-term NAC treatment (1-6 months) (data not shown)) of the same compound?
Answer: Its value is “very little to no effect”.

Question: And the “atherosclerotic plaque (adverse effect)” value (mouse, in vivo)?
Answer: Its value is “increased atherosclerotic plaque”.

Question: And the “heart function (adverse effect)” value (mouse, in vivo)?
Answer: Its value is “deterioration of heart function”.

Question: What about the “mild to moderate AS progression” value (short-term NAC treatment from 2-3 months (data not shown)) of the same compound?
Answer: Its value is “halted”.
